Assay results taken from patent US20200207734A1, “HETEROCYCLIC COMPOUND AND USE THEREOF” (Takeda Pharmaceutical Company Limited, priority 2017, published 2020).

Legend:
[1] = target: T1, human orexin type 2 receptor (Homo sapiens, UniProt O43614); assay: Measurement of orexin type 2 receptor agonist activity (calcium fluorescence, CHO cells expressing hOX2R); assay type: cell-based; settings: test compound 3 μM; CHO cells expressing human OX2 receptor; DMSO = 0%, orexin A (human) = 100%
T1 construct: human orexin type 2 receptor cDNA was inserted into pcDNA3.1(+) plasmid vector (Invitrogen); expressed in transfected cells
T1 sequence (O43614 1-444): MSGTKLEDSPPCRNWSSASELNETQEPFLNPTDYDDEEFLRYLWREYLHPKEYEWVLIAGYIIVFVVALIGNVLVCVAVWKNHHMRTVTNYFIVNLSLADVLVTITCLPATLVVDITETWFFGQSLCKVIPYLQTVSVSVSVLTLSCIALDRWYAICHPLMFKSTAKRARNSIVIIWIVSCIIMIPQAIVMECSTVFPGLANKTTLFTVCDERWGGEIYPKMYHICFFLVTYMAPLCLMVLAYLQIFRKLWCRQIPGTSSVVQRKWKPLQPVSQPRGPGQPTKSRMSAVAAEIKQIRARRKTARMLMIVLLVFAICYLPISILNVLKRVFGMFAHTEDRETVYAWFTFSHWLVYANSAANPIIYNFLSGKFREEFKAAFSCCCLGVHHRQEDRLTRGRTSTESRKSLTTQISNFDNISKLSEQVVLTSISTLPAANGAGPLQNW
Outline: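 CHO-dhfr cells stably expressing hOX2R, loaded with Fluo-4 AM in HBSS/20 mM HEPES/0.1% BSA with probenecid, then given test compound. Calcium fluorescence was read for about 2 min 40 sec. Activity (%) was scaled between DMSO (0%) and 10 nM final human orexin A (100%).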

[2] = Evaluation of microsome stability in human; assay type: in vitro ADME; settings: human liver microsomes 0.2 mg/mL, 1 μmol/L test compound, pH 7.4, NADPH-generating system, 15 and 30 min; read-out: Clearance (in vitro intrinsic metabolic clearance)
Description: Human liver microsomes were purchased from Xenotech, LLC (Lenexa, Kans.). An incubation mixture consisted of microsomes in 50 mmol/L KH2PO4—K2HPO4 phosphate buffer (pH 7.4) and 1 μmol/L test compound. The concentration of microsomal protein was 0.2 mg/mL. An NADPH-generating system (5 mmol/L MgCl2, 5 mmol/L glucose-6-phosphate, 0.5 mmol/L beta-NADP+ and 1.5 unit/mL glucose-6-phosphate dehydrogenase) was added to the incubation mixture with a half volume of the reaction mixture to initiate the enzyme reaction. The reaction was terminated 15 and 30 minutes after the initiation of the reaction by mixing the reaction mixture with acetonitrile, followed by centrifugation at 2500 rpm for 10 min. The supernatant was subjected to LC/MS/MS analysis. The metabolic velocity was calculated as the slope of the concentration-time plot. The in vitro intrinsic metabolic clearance was calculated by dividing initial metabolic velocity by the test compound concentration in the incubation mixture.

cynomolgus monkeys = assay: Evaluation of wake-promoting effects in cynomolgus monkeys (EEG/EMG/EOG); assay type: in vivo; settings: for response vs control in vivo at 1 mg/kg: Macaca fascicularis, sc, 4 h, s.c., cynomolgus monkeys, administered at ZT12, read-out: Wakefulness time (% of vehicle treatment) (Mean, n = 1-2); for Wakefulness time (% of vehicle treatment): 10 mg/kg, p.o., at ZT12, 4 h after administration, male cynomolgus monkeys, Mean, n = 4-8, cross-over design
Description: The wake-promoting effects were evaluated by measuring the electroencephalogram (EEG), electromyogram (EMG) and electrooculogram (EOG) in cynomolgus monkeys. Under isoflurane anesthesia (1-5%, Pfizer Japan Inc., Tokyo, Japan), male cynomolgus monkeys (3-5 years old, Hamri Co., Ltd., Ibaraki, Japan) were surgically implanted with radio-telemetry transmitters (TL10M3-D70-EEE, Data Sciences International Inc., MN, USA). EEG leads were stereotaxically positioned at the parietal area and secured to the cranium with stainless-steel screws in contact with the dura. […] Bilateral EMG leads were implanted into the back cervical muscles. After the surgery, each monkey was given penicillin (100,000 units/head, i.m., Meiji Seika Pharma Co., Ltd., Tokyo, Japan), buprenorphine (0.02 mg/kg, i.m., Otsuka Pharmaceutical Co., Ltd., Tokyo, Japan) and prednisolone (1 mg/kg, s.c., Kyoritsu Seiyaku Co., Ltd., Tokyo, Japan) daily for one week. After at least a 1-month recovery period in home cages, the monkeys were habituated to the recording chamber (an acrylic cage 60W×55D×75H (cm)) located in a soundproof, electrically shielded room. After we confirmed that monkeys slept sufficiently in the experimental room, cortical EEG, EMG and EOG signals were recorded using Dataquest ART software (Data Sciences International Inc., MN, USA). The signals were semi automatically scored in 20 sec epochs by a sleep scoring system (SleepSign, Kissei Comtec Co., Ltd., Nagano, Japan). This preliminary scoring was visually inspected and corrected if necessary. Test compound (10 mg/kg, Table 4-1) suspended in 0.5% methylcellulose aqueous solution, or vehicle (i.e., 0.5% methylcellulose aqueous solution) was administered orally (p.o.) to monkeys at zeitgeber time 12 (ZT12) in a volume of 5 mL/kg body weight in a cross-over design. EEG, EMG and EOG recordings were performed for 4 h after the compound administration/treatments. The time spent in wakefulness for 4 h after administration (% of vehicle treatment) was calculated by using SleepSign. Test compound (1 mg/kg, Table 4-2) dissolved in a mixed solution comprising 5% DMSO, 5% Cremophor EL, 20% PEG400 and 70% soluplus (1% (w/v)), or vehicle (i.e., a mixed solution comprising 5% DMSO, 5% Cremophor EL, 20% PEG400 and 70% soluplus (1% (w/v))) was administered subcutaneously (s.c.) to monkeys at ZT12 in a volume of 0.5 mL/kg body weight in a pre-post design. EEG, EMG and EOG recordings were performed for 4 h after the compound administration/treatments. The time spent in wakefulness for 4 h after administration (% of vehicle treatment) was calculated by using SleepSign.

Compound | OX2R agonist activity (3 μM, %) [1] [%] | microsomal CLint at 1 μmol/L [2] [µL/min/mg] | response vs control in vivo at 1 mg/kg (cynomolgus monkeys) [%] | Wakefulness time (% of vehicle treatment) (cynomolgus monkeys)
CC(C)(O)C(=O)N1CC[C@H](NS(=O)(=O)C2(F)CC2)[C@@H]1Cc1cccc(-c2cccc(F)c2)c1F [Example 450, N-[(2S,3S)-2-[(2,3′-difluoro[1,1′-biphenyl]-3-yl)methyl]-1-(2-hydroxy-2-methylpropanoyl)pyrrolidin-3-yl]-1-fluorocyclopropane-1-sulfonamide] | 107 | 78 | 243 | –
CCS(=O)(=O)N[C@H]1CCN(C(=O)N(C)OC)[C@H]1Cc1cccc(-c2cc(F)cc(F)c2)c1 [Example 477, (2S,3S)-2-[(3′,5′-difluoro[1,1′-biphenyl]-3-yl)methyl]-3-[(ethane-sulfonyl)amino]-N-methoxy-N-methylpyrrolidine-1-carboxamide] | 106 | – | 383 | –
CCS(=O)(=O)N[C@H]1CCN(C(=O)C(C)(C)O)[C@H]1Cc1cccc(-c2cccc(F)c2)c1F [Example 482, N-((2S,3S)-2-((2,3′-difluorobi-phenyl-3-yl)methyl)-1-(2-hydroxy-2-methylpropanoyl)pyrrolidin-3-yl)ethanesulfonamide] | 110 | 26 | – | 280.82 % of vehicle treatment
CC(C)(O)C(=O)N1CC[C@H](NS(C)(=O)=O)[C@@H]1Cc1cccc(-c2cc(F)cc(F)c2)c1F [Example 483, N-((2S,3S)-1-(2-hydroxy-2-methyl-propanoyl)-2-((2,3′,5′-trifluorobi-phenyl-3-yl)methyl)pyrrolidin-3-yl)methanesulfonamide] | 103 | 6 | – | 359.35 % of vehicle treatment
CCS(=O)(=O)N[C@H]1CCN(C(=O)C(C)(C)O)[C@H]1Cc1cccc(-c2cc(F)cc(F)c2)c1F [Example 484, N-((2S,3S)-1-(2-hydroxy-2-methyl-propanoyl)-2-((2,3′,5′-trifluorobi-phenyl-3-yl)methyl)pyrrolidin-3-yl)ethanesulfonamide] | 112 | 23 | – | 492.32 % of vehicle treatment
CS(=O)(=O)N[C@H]1CCN(C(=O)N2CCC2)[C@H]1Cc1cccc(-c2cccc(F)c2)c1F [Example 485, N-((2S,3S)-1-(azetidin-1-ylcarbonyl)-2-((2,3′-difluorobiphenyl-3-yl)methyl)pyrrolidin-3-yl)methanesulfonamide] | 104 | – | 449 | –
CCS(=O)(=O)N[C@H]1CCN(C(=O)N(C)C)[C@H]1Cc1cccc(-c2cccc(F)c2)c1F [Example 486, (2S,3S)-2-((2,3′-difluorobiphenyl-3-yl)methyl)-3-((ethylsulfonyl)amino)-N,N-dimethylpyrrolidine-1-carboxa-mide] | 102 | – | 328 | –
CCS(=O)(=O)N[C@H]1CCN(C(=O)N(C)C)[C@H]1Cc1cccc(-c2cc(F)cc(F)c2)c1F [Example 487, (2S,3S)-3-((ethylsulfonyl)amino)-N,N-dimethyl-2-((2,3′,5′-trifluorobi-phenyl-3-yl)methyl)pyrrolidine-1-carboxamide] | 104 | – | 355 | –
